# Test results as given in patent publication US20140303164A1, “THERAPEUTIC COMPOUNDS” (Gilead Sciences, Inc., priority 2013, published 2014).
# Legend:
# [1] = Test B: Cytotoxicity Assay; format: cell-based; settings: human, uninfected MT-4 cells, same protocol as Test A
# Outline: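 Uninfected MT-4 cells (2000 per well) incubated with diluted compound at 37° C. for 5 days, following the antiviral protocol without HIV-IIIb.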
# HIV-IIIb = experiment: Test A: Antiviral Assay in MT4 Cells; format: cell-based, HIV-1; settings: Human immunodeficiency virus 1, IIIB, MT4, 120 h; for inhibition at 0.2 µM: read-out: % inhibition at 0.2 μM; for inhibition at 2 µM: read-out: % inhibition at 2 μM
# Method: Test A: Antiviral Assay in MT4 Cells
# MT-4 cells were next mixed with HIV-IIIb at an m.o.i of 0.003 for 1 hour, after which time 35 μL of virus/cell mixture (2000 cells) was immediately added to each well containing 40 μL of diluted compound. The plates were then incubated at 37° C. for 5 days. […] Cell lysis was carried out by incubating at room temperature for 10 min and then chemiluminescence was read.
SMILES,CC50 at 5 days [1],inhibition at 0.2 µM (HIV-IIIb),inhibition at 2 µM (HIV-IIIb)
"Cn1nc(NS(C)(=O)=O)c2c(Cl)ccc(-c3ccc(C#CC(C)(C)O)nc3[C@H](Cc3cc(F)cc(F)c3)NC(=O)Cn3nc4c(c3Cl)CCCC4)c21 [Compound 125D, (S)—N-(1-(3-(4 chloro-1-methyl-3-(methylsulfonamido)-1H-indazol-7-yl)-6-(3-hydroxy-3-methylbut-1-yn-1-yl)pyridin-2-yl)-2-(3,5-difluorophenyl)ethyl)-2-(3-chloro-4,5,6,7-tetrahydro-2H-indazol-2-yl)acetamide]",13.6 µM,96%,97%
"Cn1nc(NS(C)(=O)=O)c2c(Cl)ccc(-c3ccc(C#CC(C)(C)O)nc3[C@H](Cc3cc(F)cc(F)c3)NC(=O)Cn3nc(Cl)c4c3CCCC4)c21 [Compound 126, (S)—N-(1-(3-(4 chloro-1-methyl-3-(methylsulfonamido)-1H-indazol-7-yl)-6-(3-hydroxy-3-methylbut-1-yn-1-yl)pyridin-2-yl)-2-(3,5-difluorophenyl)ethyl)-2-(3-chloro-4,5,6,7-tetrahydro-1H-indazol-1-yl)acetamide]",15.5 µM,92%,92%
"Cn1nc(NS(C)(=O)=O)c2c(Cl)ccc(-c3ccc(C#CC(C)(C)O)nc3[C@H](Cc3cc(F)cc(F)c3)NC(=O)Cc3cccc(Cl)c3Cl)c21 [Compound 129, (S)—N-(1-(3-(4 chloro-1-methyl-3-(methylsulfonamido)-1H-indazol-7-yl)-6-(3-hydroxy-3-methylbut-1-yn-1-yl)pyridin-2-yl)-2-(3,5-difluorophenyl)ethyl)-2-(2,3-dichlorophenyl)acetamide]",12.1 µM,54%,82%
"COc1ccc(-c2ccc(C#CC(C)(C)C)nc2[C@H](Cc2cc(F)cc(F)c2)NC(=O)Cn2nc(C(F)F)c3c2C(F)(F)[C@@H]2C[C@H]32)c2nnc(NS(C)(=O)=O)n12 [Compound 130, 2-((3bS,4aR)-3-(difluoromethyl)-5,5-difluoro-3b,4,4a,5-tetrahydro-1H-cyclopropa[3,4]cyclopenta[1,2-c]pyrazol-1-yl)-N—((S)-2-(3,5-difluorophenyl)-1-(6-(3,3-dimethylbut-1-yn-1-yl)-3-(5-methoxy-3-(methylsulfonamido)-[1,2,4]triazolo[4,3-a]pyridin-8-yl)pyridin-2-yl)ethyl)acetamide]",23.2 µM,80%,85%
"Cn1nc(NS(C)(=O)=O)c2c(Cl)ccc(-c3ccc(C#CC(C)(C)C)nc3[C@H](Cc3cc(F)cc(F)c3)NC(=O)Cn3nc(C(F)F)c4c3C(F)(F)[C@@H]3C[C@H]43)c21 [Compound 131E, N—((S)-1-(3-(4-chloro-1-methyl-3-(methylsulfonamido)-1H-indazol-7-yl)-6-(3,3-dimethylbut-1-yn-1-yl)pyridin-2-yl)-2-(3,5-difluorophenyl)ethyl)-2-((3b-S,4aR)-3-(difluoromethyl)-5,5-difluoro-3b,4,4a,5-tetrahydro-1H-cyclopropa[3,4]cyclopenta[1,2-c]pyrazol-1-yl)acetamide]",22.5 µM,95%,96%
"Cn1nc(NS(C)(=O)=O)c2c(F)ccc(-c3ccc(C#CC(C)(C)O)nc3[C@H](Cc3cc(F)cc(F)c3)NC(=O)Cn3nc(C(F)(F)F)c4c3C(F)(F)[C@@H]3C[C@H]43)c21 [Compound 132C, 2-((3bS,4aR)-5,5-difluoro-3-(trifluoromethyl)-3b,4,4a,5-tetrahydro-1H-cyclopropa[3,4]cyclopenta[1,2-c]pyrazol-1-yl)-N—((S)-2-(3,5-difluorophenyl)-1-(3-(4-fluoro-1-methyl-3-(methylsulfonamido)-1H-indazol-7-yl)-6-(3-hydroxy-3-methylbut-1-yn-1-yl)pyridin-2-yl)ethyl)acetamide]",24.2 µM,92%,92%
"Cc1ccc(-c2ccc(C#CC(C)(C)C)nc2[C@H](Cc2cc(F)cc(F)c2)NC(=O)Cn2nc(C(F)F)c3c2C(F)(F)[C@@H]2C[C@H]32)c2nnc(NS(C)(=O)=O)n12 [Compound 133, 2-((3bS,4aR)-3-(difluoromethyl)-5,5-difluoro-3b,4,4a,5-tetrahydro-1H-cyclopropa[3,4]cyclopenta[1,2-c]pyrazol-1-yl)-N—((S)-2-(3,5-difluorophenyl)-1-(6-(3,3-dimethylbut-1-yn-1-yl)-3-(5-methyl-3-(methylsulfonamido)-[1,2,4]triazolo[4,3-a]pyridin-8-yl)pyridin-2-yl)ethyl)acetamide]",16.8 µM,90%,90%
"Cn1ncc2c(Cl)ccc(-c3ccc(C#CC(C)(C)O)nc3[C@H](Cc3cc(F)cc(F)c3)NC(=O)Cn3nc(C(F)F)c4c3C(F)(F)[C@@H]3C[C@H]43)c21 [Compound 137C, N—((S)-1-(3-(4-chloro-1-methyl-1H-indazol-7-yl)-6-(3-hydroxy-3-methylbut-1-yn-1-yl)pyridin-2-yl)-2-(3,5-difluorophenyl)ethyl)-2-((3b-S,4aR)-3-(difluoromethyl)-5,5-difluoro-3b,4,4a,5-tetrahydro-1H-cyclopropa[3,4]cyclopenta[1,2-c]pyrazol-1-yl)acetamide]",7.88 µM,93%,100%
"CC(C)(O)C#Cc1ccc(-c2cccn3c(C(F)F)nnc23)c([C@H](Cc2cc(F)cc(F)c2)NC(=O)Cn2nc(C(F)F)c3c2C(F)(F)[C@@H]2C[C@H]32)n1 [Compound 138, 2-((3b-S,4aR)-3-(difluoromethyl)-5,5-difluoro-3b,4,4a,5-tetrahydro-1H-cyclopropa[3,4]cyclopenta[1,2-c]pyrazol-1-yl)-N—((S)-1-(3-(3-(difluoromethyl)-[1,2,4]triazolo[4,3-a]pyridin-8-yl)-6-(3-hydroxy-3-methylbut-1-yn-1-yl)pyridin-2-yl)-2-(3,5-difluorophenyl)ethyl)acetamide]",33.4 µM,61%,83%
"COc1cc(-c2ccc(Cl)c3c(NS(C)(=O)=O)nn(C)c23)c([C@H](Cc2cc(F)cc(F)c2)NC(=O)Cn2nc(C(F)F)c3c2C(F)(F)[C@@H]2C[C@H]32)nc1C#CC(C)(C)O [Compound 139B, N—((S)-1-(3-(4-chloro-1-methyl-3-(methylsulfonamido)-1H-indazol-7-yl)-6-(3-hydroxy-3-methylbut-1-yn-1-yl)-5-methoxypyridin-2-yl)-2-(3,5-difluorophenyl)ethyl)-2-((3b-S,4aR)-3-(difluoromethyl)-5,5-difluoro-3b,4,4a,5-tetrahydro-1H-cyclopropa[3,4]cyclopenta[1,2-c]pyrazol-1-yl)acetamide]",15.4 µM,94%,94%
"Cn1nc(NS(C)(=O)=O)c2c(Cl)ccc(-c3ccc(C#CC(C)(C)O)nc3[C@H](Cc3cc(F)cc(F)c3)NC(=O)Cn3nc4c(c3Cl)[C@H]3C[C@H]3C4(F)F)c21 [Compound 140M, N—((S)-1-(3-(4-chloro-1-methyl-3-(methylsulfonamido)-1H-indazol-7-yl)-6-(3-hydroxy-3-methylbut-1-yn-1-yl)pyridin-2-yl)-2-(3,5-difluorophenyl)ethyl)-2-((3b-S,4aR)-3-chloro-5,5-difluoro-3b,4,4a,5-tetrahydro-2H-cyclopropa[3,4]cyclopenta[1,2-c]pyrazol-2-yl)acetamide]",20.4 µM,98%,98%
"C[C@H](O)C#Cc1ccc(-c2ccc(Cl)c3c(NS(C)(=O)=O)nn(C)c23)c([C@H](Cc2cc(F)cc(F)c2)NC(=O)Cn2nc(C(F)F)c3c2C(F)(F)[C@@H]2C[C@H]32)n1 [Compound 142, N—((S)-1-(3-(4-chloro-1-methyl-3-(methylsulfonamido)-1H-indazol-7-yl)-6-((S)-3-hydroxybut-1-yn-1-yl)pyridin-2-yl)-2-(3,5-difluorophenyl)ethyl)-2-((3bS,4aR)-3-(difluoromethyl)-5,5-difluoro-3b,4,4a,5-tetrahydro-1H-cyclopropa[3,4]cyclopenta[1,2-c]pyrazol-1-yl)acetamide]",12.6 µM,92%,92%
"C[C@@H](O)C#Cc1ccc(-c2ccc(Cl)c3c(NS(C)(=O)=O)nn(C)c23)c([C@H](Cc2cc(F)cc(F)c2)NC(=O)Cn2nc(C(F)F)c3c2C(F)(F)[C@@H]2C[C@H]32)n1 [Compound 143, N—((S)-1-(3-(4-chloro-1-methyl-3-(methylsulfonamido)-1H-indazol-7-yl)-6-((R)-3-hydroxybut-1-yn-1-yl)pyridin-2-yl)-2-(3,5-difluorophenyl)ethyl)-2-((3b-S,4aR)-3-(difluoromethyl)-5,5-difluoro-3b,4,4a,5-tetrahydro-1H-cyclopropa[3,4]cyclopenta[1,2-c]pyrazol-1-yl)acetamide]",11.3 µM,98%,98%
"Cn1nc(NS(C)(=O)=O)c2c(Cl)ccc(-c3ccc(C#CC(C)(O)CF)nc3[C@H](Cc3cc(F)cc(F)c3)NC(=O)Cn3nc(C(F)F)c4c3C(F)(F)[C@@H]3C[C@H]43)c21 (stereo partly drawn) [Compound 144, N-((1S)-1-(3-(4-chloro-1-methyl-3-(methylsulfonamido)-1H-indazol-7-yl)-6-(4-fluoro-3-hydroxy-3-methylbut-1-yn-1-yl)pyridin-2-yl)-2-(3,5-difluorophenyl)ethyl)-2-((3b-S,4aR)-3-(difluoromethyl)-5,5-difluoro-3b,4,4a,5-tetrahydro-1H-cyclopropa[3,4]cyclopenta[1,2-c]pyrazol-1-yl)acetamide]",16.2 µM,95%,95%
